# Experiments:
# [1] = test system: hepatitis B-related HCC patients; conditions: advanced stage patients; placebo 4.2 months; cited from earlier work
# [2] = test system: Hep3B, SK-HEP1 and HKCl-9 HCC cell lines; test: MTT cell viability assay in HCC cell lines; assay type: cell-based; conditions: Homo sapiens; 48 h; range over the 3 cell lines Hep3B, SK-HEP1, HKCl-9
# Protocol: Human liver cancer cell lines Hep3B and SK-HEP1 acquired from ATCC were cultured in Dulbecco's modified Eagle medium with Glutamax-1 (Gibco-BRL, Grand Island, N.Y., USA) supplemented with 10% fetal bovine serum. HKCl-9 (as described in Chan K.Y. Y. et al., Modern Pathology 19:1546-54 (2006)) was cultured in AIMV medium (Gibco-BRL) supplemented with 1% L-Glutamine and 10% fetal bovine serum. All cells were cultured under a humidified atmosphere of 5% CO2 at 37° C.
# SK-HEP1/Luc+ xenograft = SK-HEP1/Luc+ xenograft model; conditions: 35 mmol/kg every two days for five times
# Protocol: SK-HEP1 luciferase stable clone was prepared by transfecting SK-HEP1 cells with firefly luciferase expression vector and selected with 500 ug/ml Geneticin (Gibco-BRL) for 4 weeks. Individual colonies were screened for bioluminescence activity using the Xenogen IVIS® imager (Alameda, Calif., USA). Clones with stable luminescence expression were used for in-vivo studies.
# Male BALB/c nude mice at 6-8 weeks old with an average body weight of about 20 g were anesthetized by intraperitoneal injection of ketamine hydrochloride (120 mg/kg) (Fort Dodge Animal Health, Fort Dodge, Iowa, USA) plus xylazine (6 mg/kg) (Phoenix Scientific, Inc., St. Joseph, Mo., USA). Anesthetized animals then received 5×10^6 SK-HEP1/Luc+ cells suspended in 200 μl serum free medium by subcutaneous injection below the dorsal flank. Drug treatments started on day 14 after tumor cells inoculation. […] All drugs were given every two days for five times, at a dose of 35 mmol/kg. See Desai N. et al., Clinical Cancer Research, 12:1317-24 (2006). Tumor growth was monitored twice weekly by in-vivo bioluminescent imaging and by external caliper measurements using the formula of [(Length×Width^2)/2] for 24 days. For in-vivo bioluminescent imaging, 150 mg/kg D-luciferin were given by intraperitoneal injection and ten minutes after luciferin injection, mice were anesthetized by isoflurane and tumor cell viability was measured by the Xenogen IVIS® imager.
# Hep3B cells = test: MTT cell viability assay after siRNA transfection (STMN1 knockdown); assay type: cell-based, human
# Protocol: Cell viability was measured by MTT Assay. Cells grown in 96-well plates at density of 3000 cells per well were treated with drugs or siRNA transfection as indicated. […] The formazan formed was measured at 570 nm and cell viability is expressed as a percentage of maximum absorbance from 5 replicates in 3 independent experiments. The concentration of drug that inhibited cell survival by 50% (IC50) was determined from cell survival curves.
# siRNA sequences included STMN1 siGENOME SMARTpool (si-STMN1) and siCONTROL Non-Targeting siRNA (si-mock). All siRNAs were chemically synthesized as double stranded RNA (Dharmacon) and introduced into cell lines by Lipofectamine 2000 (Invitrogen, Carlsbad, Calif., USA) according to manufacturer's instructions. Briefly, cells were incubated with 100 nM siRNA (si-STMN1 or si-mock). Six hours after transfection, medium was replaced by fresh growing medium. The expression of STMN1 was monitored by Western blot, which indicated a repressed expression for at least 3 days.
# HCC patients = conditions: British Journal of Cancer 1998; cited from earlier work
# HCC cells = conditions: US Patent App. No. 2008/0045584; cited from earlier work
smiles,measurement,setting,value
CNC(=O)c1cc(Oc2ccc(NC(=O)Nc3ccc(Cl)c(C(F)(F)F)c3)cc2)ccn1 [Sorafenib],Median overall survival,[1],6.5 months
COc1cccc2c1C(=O)c1c(O)c3c(c(O)c1C2=O)C[C@@](O)(C(=O)CO)C[C@@H]3O[C@H]1C[C@H](N)[C@H](O)[C@H](C)O1 [Doxorubicin],IC50,[2],106 to 456 nM
same,"Toxicity (weight loss, deaths)",SK-HEP1/Luc+ xenograft,particularly severe
same,Fold more sensitive after STMN1 knockdown (si-STMN1 vs si-mock),Hep3B cells,no effect
CC(=O)O[C@H]1C(=O)[C@@]2(C)[C@H]([C@H](OC(=O)c3ccccc3)[C@]3(O)C[C@H](OC(=O)[C@H](O)[C@@H](NC(=O)c4ccccc4)c4ccccc4)C(C)=C1C3(C)C)[C@]1(OC(C)=O)CO[C@@H]1C[C@@H]2O [Paclitaxel],Anti-cancer effect in HCC patients,HCC patients,no significant anti-cancer effect
same,"Toxicity (weight loss, deaths)",SK-HEP1/Luc+ xenograft,particularly severe
CC(=O)O[C@@]12CO[C@@H]1C[C@H](O)[C@@]1(C)C(=O)[C@H](O)C3=C(C)[C@@H](OC(=O)[C@H](O)[C@@H](NC(=O)OC(C)(C)C)c4ccccc4)C[C@@](O)([C@@H](OC(=O)c4ccccc4)[C@H]21)C3(C)C [Docetaxel],Activity against HCC cells relative to paclitaxel,HCC cells,more active against HCC cells than paclitaxel
same,"Toxicity (weight loss, deaths)",SK-HEP1/Luc+ xenograft,particularly severe
